Drawing on PMC4007590, “Development of an oligonucleotide-based fluorescence assay for the identification of tyrosyl-DNA phosphodiesterase 1 (TDP1) inhibitors” (Analytical Biochemistry, 2014), this text covers IC50 for two compounds.

The target in this assay is T1, tyrosyl-DNA phosphodiesterase 1 (TDP1) (Homo sapiens, UniProt Q9NUW8).
T1 construct: catalytic domain of human TDP1
The assay can be described thus: Gyrasol fluorescence quench assay, FITC-phosphotyrosyl […]mer oligonucleotide substrate, recombinant TDP1. It is filed as biochemical.

Where two headings read alike, the source gives them in different places.

T1 sequence (Q9NUW8 149-608 limits assumed): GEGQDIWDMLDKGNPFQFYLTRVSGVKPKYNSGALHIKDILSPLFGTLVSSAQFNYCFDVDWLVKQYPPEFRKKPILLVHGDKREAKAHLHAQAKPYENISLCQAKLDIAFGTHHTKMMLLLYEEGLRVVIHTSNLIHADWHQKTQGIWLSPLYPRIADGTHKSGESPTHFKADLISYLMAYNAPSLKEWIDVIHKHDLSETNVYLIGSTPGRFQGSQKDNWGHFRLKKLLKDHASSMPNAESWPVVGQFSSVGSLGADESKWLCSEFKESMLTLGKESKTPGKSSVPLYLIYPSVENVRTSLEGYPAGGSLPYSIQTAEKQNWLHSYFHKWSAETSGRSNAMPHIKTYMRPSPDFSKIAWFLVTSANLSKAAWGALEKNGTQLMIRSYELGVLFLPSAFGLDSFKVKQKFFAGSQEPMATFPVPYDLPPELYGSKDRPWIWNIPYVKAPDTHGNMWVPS

For `Cc1ccc(C(=O)Nc2ccc(S(=O)(=O)O)c3cc(S(=O)(=O)O)cc(S(=O)(=O)O)c23)cc1NC(=O)c1cccc(NC(=O)Nc2cccc(C(=O)Nc3cc(C(=O)Nc4ccc(S(=O)(=O)O)c5cc(S(=O)(=O)O)cc(S(=O)(=O)O)c45)ccc3C)c2)c1` [Suramin], where the note is “read-out: IC50”, the IC50 was 5 µM.
For the compound `[O]=[V]([OH])([OH])[OH]` [sodium orthovanadate], the IC50 amounted to 4 µM.
